# Test system: CP myoblast cultures
# Experiment: Real-time qPCR gene expression profiling in fusing CP myoblasts
# Type: cell-based, human
# Parameters: key to JAG2 Expression / ATP2A1 Expression / DLL1 Expression / MYF5 Expression / ATP2A2 Expression / JAG1 Expression / SIX1 Expression / MYH7 Expression / CDKN1A Expression / NRG1 Expression / DLK1 Expression: relative expression vs non-treated; ≥2 up, ≤0.5 down
# Protocol: To investigate whether additional signaling pathways and genes were affected by 5-AZA treatment, real-time qPCR was used to analyze the expression of 91 genes involved in myogenesis, neurogenesis and adipogenesis in fusing CP myoblasts after 24 hours of pretreatment with 5 μM of 5-AZA (Supp. Table 2A). […] Also, 5-AZA pretreatment led to upregulation of transcription regulators involved in myogenesis and other signaling pathways (BMI1, SIX1, SIX4, EGR3, FOXO1, MAPK14, MEF2A, MEF2C, MYF5, MYOG, NEUROD2, NOTCH2, PAX3, PAX7, PPARA, PPARD, PPARG, RPBJ, RARA). […] Impairment in other signaling pathways involved in myoblast fusion and myotube formation (e.g., TMEM8C/Myomaker, Rho GTPases, MAPKs, Calcineurin-NFATc2, NF-KB, WNT, MMPs) may also contribute to the decrease in myogenic potential of CP myoblasts.
# Myoblasts, treated or non-treated with 5 μM 5-AZA for 24 hours, were cultured in high serum medium until they reached 80-90% confluence. After switch to low-serum medium, myoblast preparations were allowed to differentiate for 24-72 hours before RNA extraction. Total RNA was isolated and purified from myoblast cell culture preparations using Trizol reagent (Ambion—Life Technologies) according to manufacturer's recommendations. First-strand cDNA synthesis from purified RNAs and qPCR amplification was performed using the GoTaq 2-Step RT-qPCR System kit (Promega) according to manufacturer's protocols. Resulting cDNAs were subjected to SYBR Green-based real-time amplification using a C1000 Thermal Cycler apparatus (Bio-Rad). Each PCR amplification reaction (20 μl volume) contained 100 ng of starting cDNA template and primers amplifying a specific gene. Gene expression profiling during myoblast differentiation was investigated using predesigned 96-well gene panels for use with SYBR Green (SABioscience) (Tables 1A and 2A).
# The predesigned 96-well gene panels utilized expertly designed and experimentally validated PCR primers and assays and included 3 reference genes for relative gene expression normalization and quantification: HPRT1, TBP and AP3DI. These reference genes were specifically validated for our experimental treatment and conditions and were selected among 15 experimentally tested candidates and analyzed using the software packages Bestkeeper, geNorm and Normfinder. Cycling conditions for SYBR Green primers consisted of an initial step at 50° C. (2 minutes) and a first denaturizing step at 95° C. (2 minutes), followed by 50 cycles of a thermal step protocol consisting of 95° C. (20 seconds), 60° C. (20 seconds) and 72° C. (20 seconds). A standard melt curve profiling consisting of a 65-95° C. thermal ramp was performed at the end of each protocol. Gene expression quantification was performed using Bio-Rad CFX Manager software. Positively and negatively regulated genes were selected following a P<0.05 and a 2 or 0.5 expression level respectively. Functional gene classification was performed using The Database for Annotation, Visualization and Integrated Discovery (DAVID) v6.8 (at <https://david.ncifcrf.gov/>).
# [1] = 5 μM 24 hours pretreatment vs non-treated CP, 48-72 hours of differentiation
# [2] = gene ACTA1, 5 μM 24 h pretreatment vs non-treated CP
# [3] = gene ACTG1, 5 μM 24 h pretreatment vs non-treated CP
# [4] = gene ACTN2, 5 μM 24 h pretreatment vs non-treated CP
# [5] = gene ATP2A1, 5 μM 24 h pretreatment vs non-treated CP
# [6] = gene ATP2A2, 5 μM 24 h pretreatment vs non-treated CP
# [7] = gene BCL2, 5 μM 24 h pretreatment vs non-treated CP
# [8] = gene BMI1, 5 μM 24 h pretreatment vs non-treated CP
# [9] = gene CAV3, 5 μM 24 h pretreatment vs non-treated CP
# [10] = gene CDKN1A, 5 μM 24 h pretreatment vs non-treated CP
# [11] = gene DES, 5 μM 24 h pretreatment vs non-treated CP
# [12] = gene DLK1, 5 μM 24 h pretreatment vs non-treated CP
# [13] = gene DLL1, 5 μM 24 h pretreatment vs non-treated CP
# [14] = gene EGR3, 5 μM 24 h pretreatment vs non-treated CP
# [15] = gene FHL2, 5 μM 24 h pretreatment vs non-treated CP
# [16] = gene FOXO1, 5 μM 24 h pretreatment vs non-treated CP
# [17] = gene ITGA7, 5 μM 24 h pretreatment vs non-treated CP
# [18] = gene ITGB1, 5 μM 24 h pretreatment vs non-treated CP
# [19] = gene JAG1, 5 μM 24 h pretreatment vs non-treated CP
# [20] = gene JAG2, 5 μM 24 h pretreatment vs non-treated CP
# [21] = gene LRP4, 5 μM 24 h pretreatment vs non-treated CP
# [22] = gene MAPK14, 5 μM 24 h pretreatment vs non-treated CP
# [23] = gene MEF2A, 5 μM 24 h pretreatment vs non-treated CP
# [24] = gene MEF2C, 5 μM 24 h pretreatment vs non-treated CP
# [25] = gene MET, 5 μM 24 h pretreatment vs non-treated CP
# [26] = gene MYF5, 5 μM 24 h pretreatment vs non-treated CP
# [27] = gene MYF6, 5 μM 24 h pretreatment vs non-treated CP
# [28] = gene MYH2, 5 μM 24 h pretreatment vs non-treated CP
# [29] = gene MYH3, 5 μM 24 h pretreatment vs non-treated CP
# [30] = gene MYH7, 5 μM 24 h pretreatment vs non-treated CP
# [31] = gene MYH8, 5 μM 24 h pretreatment vs non-treated CP
# [32] = gene MYH9, 5 μM 24 h pretreatment vs non-treated CP
# [33] = gene MYOG, 5 μM 24 h pretreatment vs non-treated CP
# [34] = gene NCAM1, 5 μM 24 h pretreatment vs non-treated CP
# [35] = gene NEUROD2, 5 μM 24 h pretreatment vs non-treated CP
# [36] = gene NOTCH2, 5 μM 24 h pretreatment vs non-treated CP
# [37] = gene NRG1, 5 μM 24 h pretreatment vs non-treated CP
# [38] = gene PAK1, 5 μM 24 h pretreatment vs non-treated CP
# [39] = gene PAX3, 5 μM 24 h pretreatment vs non-treated CP
# [40] = gene PAX7, 5 μM 24 h pretreatment vs non-treated CP
# [41] = gene PDGFRA, 5 μM 24 h pretreatment vs non-treated CP
# [42] = gene PDGFRB, 5 μM 24 h pretreatment vs non-treated CP
# [43] = gene PPARA, 5 μM 24 h pretreatment vs non-treated CP
# [44] = gene PPARD, 5 μM 24 h pretreatment vs non-treated CP
# [45] = gene PPARG, 5 μM 24 h pretreatment vs non-treated CP
# [46] = gene RARA, 5 μM 24 h pretreatment vs non-treated CP
# [47] = gene RBPJ, 5 μM 24 h pretreatment vs non-treated CP
# [48] = gene SHH, 5 μM 24 h pretreatment vs non-treated CP
# [49] = gene SIX1, 5 μM 24 h pretreatment vs non-treated CP
# [50] = gene SIX4, 5 μM 24 h pretreatment vs non-treated CP
# [51] = gene TMEM8C, 5 μM 24 h pretreatment vs non-treated CP
smiles,measurement,setting,value
"Nc1ncn([C@@H]2O[C@H](CO)[C@@H](O)[C@H]2O)c(=O)n1 [5-AZA, 5-azacytidine]",genes significantly downregulated (of 91 genes),[1],7 genes
same,genes significantly upregulated (of 91 genes),[1],43 genes
same,ACTA1 Expression,[2],5.23
same,ACTA1 Regulation,[2],5.2
same,ACTG1 Expression,[3],0.09
same,ACTG1 Regulation,[3],−10.7
same,ACTN2 Expression,[4],5.96
same,ACTN2 Regulation,[4],6.0
same,ATP2A1 Expression,[5],7.87
same,ATP2A1 Regulation,[5],7.9
same,ATP2A2 Expression,[6],3.26
same,ATP2A2 Regulation,[6],3.3
same,BCL2 Expression,[7],5.33
same,BCL2 Regulation,[7],5.3
same,BMI1 Expression,[8],2.97
same,BMI1 Regulation,[8],3.0
same,CAV3 Expression,[9],2.92
same,CAV3 Regulation,[9],2.9
same,CDKN1A Expression,[10],0.23
same,CDKN1A Regulation,[10],−4.4
same,DES Expression,[11],6.23
same,DES Regulation,[11],6.2
same,DLK1 Expression,[12],16.51
same,DLK1 Regulation,[12],16.5
same,DLL1 Expression,[13],7.05
same,DLL1 Regulation,[13],7.0
same,EGR3 Expression,[14],14.93
same,EGR3 Regulation,[14],14.9
same,FHL2 Expression,[15],0.45
same,FHL2 Regulation,[15],−2.2
same,FOXO1 Expression,[16],7.30
same,FOXO1 Regulation,[16],7.3
same,ITGA7 Expression,[17],4.22
same,ITGA7 Regulation,[17],4.2
same,ITGB1 Expression,[18],2.11
same,ITGB1 Regulation,[18],2.1
same,JAG1 Expression,[19],2.61
same,JAG1 Regulation,[19],2.6
same,JAG2 Expression,[20],10.19
same,JAG2 Regulation,[20],10.2
same,LRP4 Expression,[21],3.01
same,LRP4 Regulation,[21],3.0
same,MAPK14 Expression,[22],2.84
same,MAPK14 Regulation,[22],2.8
same,MEF2A Expression,[23],10.08
same,MEF2A Regulation,[23],10.1
same,MEF2C Expression,[24],5.79
same,MEF2C Regulation,[24],5.8
same,MET Expression,[25],2.07
same,MET Regulation,[25],2.1
same,MYF5 Expression,[26],6.99
same,MYF5 Regulation,[26],7.0
same,MYF6 Expression,[27],3.77
same,MYF6 Regulation,[27],3.8
same,MYH2 Expression,[28],6.99
same,MYH2 Regulation,[28],7.0
same,MYH3 Expression,[29],6.74
same,MYH3 Regulation,[29],6.7
same,MYH7 Expression,[30],2.15
same,MYH7 Regulation,[30],2.1
same,MYH8 Expression,[31],2.51
same,MYH8 Regulation,[31],2.5
same,MYH9 Expression,[32],0.17
same,MYH9 Regulation,[32],−5.8
same,MYOG Expression,[33],7.72
same,MYOG Regulation,[33],7.7
same,NCAM1 Expression,[34],6.55
same,NCAM1 Regulation,[34],6.6
same,NEUROD2 Expression,[35],56.33
same,NEUROD2 Regulation,[35],56.3
same,NOTCH2 Expression,[36],3.12
same,NOTCH2 Regulation,[36],3.1
same,NRG1 Expression,[37],0.47
same,NRG1 Regulation,[37],−2.1
same,PAK1 Expression,[38],4.49
same,PAK1 Regulation,[38],4.5
same,PAX3 Expression,[39],12.50
same,PAX3 Regulation,[39],12.5
same,PAX7 Expression,[40],2.88
same,PAX7 Regulation,[40],2.9
same,PDGFRA Expression,[41],0.38
same,PDGFRA Regulation,[41],−2.6
same,PDGFRB Expression,[42],0.34
same,PDGFRB Regulation,[42],−2.9
same,PPARA Expression,[43],2.69
same,PPARA Regulation,[43],2.7
same,PPARD Expression,[44],3.55
same,PPARD Regulation,[44],3.6
same,PPARG Expression,[45],24.42
same,PPARG Regulation,[45],24.4
same,RARA Expression,[46],2.19
same,RARA Regulation,[46],2.2
same,RBPJ Expression,[47],3.84
same,RBPJ Regulation,[47],3.8
same,SHH Expression,[48],23.75
same,SHH Regulation,[48],23.8
same,SIX1 Expression,[49],2.21
same,SIX1 Regulation,[49],2.2
same,SIX4 Expression,[50],3.20
same,SIX4 Regulation,[50],3.2
same,TMEM8C Expression,[51],3.59
same,TMEM8C Regulation,[51],3.6

# From US20190112580A1, “METHODS FOR TREATING CO[…] AND RELATED CULTURED CELLS” (priority 2017, published 2019)
